Structures can show the parent of a compound that is named as a salt. Where two headings read alike, the source gives them in different places.
How the values were obtained:
Format in all cases: biochemical
recombinant PRL-3 = target: T1, recombinant PRL-3 (Homo sapiens, UniProt O75365); assay: In vitro phosphatase assay (DiFMUP hydrolysis), PRL-3; also: test concentration or dose not given here
T1 construct: 6xHis (N, cleaved yes); made in house; host or cells: E. coli One Shot BL21 Star

recombinant PRL-1 = target: T2, recombinant PRL-1 (Homo sapiens, UniProt Q93096); assay: In vitro phosphatase assay (DiFMUP hydrolysis), PRL-1; also: test concentration or dose not given here
T2 construct: 6xHis (N, cleaved yes); made in house; host or cells: E. coli One Shot BL21 Star
T2 sequence (Q93096 1-173): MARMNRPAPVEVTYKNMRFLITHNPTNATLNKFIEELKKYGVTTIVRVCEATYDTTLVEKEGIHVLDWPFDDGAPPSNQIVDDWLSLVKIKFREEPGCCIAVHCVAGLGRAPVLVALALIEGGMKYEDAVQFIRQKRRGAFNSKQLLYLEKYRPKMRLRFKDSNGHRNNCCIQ

recombinant PRL-2 = target: T3, recombinant PRL-2 (Homo sapiens, UniProt Q12974); assay: In vitro phosphatase assay (DiFMUP hydrolysis), PRL-2;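 also: PRL-2 activity read as DiFMUP hydrolysis after 20 min at room temperature with drug, enzyme first pre-reduced at 4 °C for 20 min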
T3 construct: 6xHis (N, cleaved yes); made in house; host or cells: E. coli One Shot BL21 Star
T3 sequence (Q12974 1-167): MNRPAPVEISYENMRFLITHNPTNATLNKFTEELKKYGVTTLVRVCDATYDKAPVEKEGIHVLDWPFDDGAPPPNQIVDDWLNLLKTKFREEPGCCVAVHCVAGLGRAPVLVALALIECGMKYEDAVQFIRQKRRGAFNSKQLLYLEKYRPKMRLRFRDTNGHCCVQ

[1] = FDA-approved drug screen, compared to DMSO

T1 sequence (O75365 whole entry): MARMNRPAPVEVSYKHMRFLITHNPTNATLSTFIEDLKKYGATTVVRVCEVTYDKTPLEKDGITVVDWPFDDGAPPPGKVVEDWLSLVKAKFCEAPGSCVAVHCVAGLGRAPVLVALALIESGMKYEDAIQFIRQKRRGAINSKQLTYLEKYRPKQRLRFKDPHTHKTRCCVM

| SMILES | % Phosphatase Activity (compared to DMSO) PRL-3 (recombinant PRL-3; [1]) [%] | % Phosphatase Activity (compared to DMSO) PRL-1 (recombinant PRL-1; [1]) [%] | % Phosphatase Activity (compared to DMSO) PRL-2 (recombinant PRL-2; [1]) [%] | % Phosphatase Activity (compared to DMSO) PRL-3 (recombinant PRL-3) [%] | % Phosphatase Activity (compared to DMSO) PRL-1 (recombinant PRL-1) [%] | % Phosphatase Activity (compared to DMSO) PRL-2 (recombinant PRL-2) [%] |
| --- | --- | --- | --- | --- | --- | --- |
| COC(=O)C1=C(C)NC(C)=C(C(=O)OCC(C)C)C1c1ccccc1[N+](=O)[O-] (stereo not drawn) [Nisoldipine] | 85 | 81 | 75 | – | – | – |
| CC(=O)Oc1ccccc1C(=O)Nc1ncc([N+](=O)[O-])s1 [Nitazoxanide] | 62 | 87 | 76 | – | – | – |
| CCOC(=O)C1=C(C)NC(C)=C(C(=O)OC)C1c1cccc([N+](=O)[O-])c1 (stereo not drawn) [Nitrendipine] | 68 | 85 | 84 | – | – | – |
| NC(=O)N/N=C/c1ccc([N+](=O)[O-])o1 [Nitrofural] | 68 | 82 | 72 | – | – | – |
| O=C1CN(/N=C/c2ccc([N+](=O)[O-])o2)C(=O)N1 [Nitrofurantoin] | – | – | – | 67 | 76 | 63 |
| O=[N+]([O-])c1ccc(O)c2ncccc12 [Nitroxoline] | 49 | 58 | 48 | – | – | – |
| CNC(=C[N+](=O)[O-])NCCSCc1csc(CN(C)C)n1 [Nizatidine] | 97 | 87 | 105 | – | – | – |
| NC[C@H](O)c1ccc(O)c(O)c1.O.O=C(O)C(O)C(O)C(=O)O [Noradrenaline bitartrate monohydrate] | 88 | 103 | 120 | – | – | – |
| C#C[C@]1(O)CC[C@H]2[C@@H]3CCC4=CC(=O)CC[C@@H]4[C@H]3CC[C@@]21C [Norethindrone] | 79 | 92 | 104 | – | – | – |
| CCn1cc(C(=O)O)c(=O)c2cc(F)c(N3CCNCC3)cc21 [Norfloxacin] | 111 | 131 | 130 | – | – | – |
| COc1ccc2c(c1OC)C(=O)O[C@@H]2[C@H]1c2c(cc3c(c2OC)OCO3)CCN1C [Noscapine HCl] | 103 | 92 | 116 | – | – | – |
| CO[C@@H]1[C@@H](OC(N)=O)[C@@H](O)[C@H](Oc2ccc3c(O)c(NC(=O)c4ccc(O)c(CC=C(C)C)c4)c(=O)oc3c2C)OC1(C)C [Novobiocin Sodium] | 70 | 94 | 87 | – | – | – |
| C[C@@H]1[C@H](O)[C@@H](C)/C=C/C=C/CC/C=C/C=C/C=C/C=C/[C@H](O[C@H]2O[C@@H](C)[C@H](O)[C@@H](N)[C@H]2O)C[C@@H]2O[C@](O)(C[C@@H](O)[C@H](O)CC[C@@H](O)C[C@@H](O)C[C@@H](O)CC(=O)O[C@H]1C)C[C@H](O)[C@H]2C(=O)O [Nystatin (Fungicidin)] | 81 | 79 | 87 | – | – | – |
| C[C@]1(O)C[C@@H](c2nc(-c3ccc4ccc(-c5ccccc5)nc4c3)c3c(N)nccn32)C1 [OSI-906 (Linsitinib)] | 77 | 79 | 96 | – | – | – |
| CC[C@H]1[C@@H](O)[C@@H]2[C@H](CC[C@]3(C)[C@@H]([C@H](C)CCC(=O)O)CC[C@@H]23)[C@@]2(C)CC[C@@H](O)C[C@@H]12 [Obeticholic Acid] | 90 | 86 | 72 | – | – | – |
| CNS(=O)(=O)C[C@H]1CC[C@H](N(C)c2ncnc3[nH]ccc23)CC1 [Oclacitinib] | 80 | 98 | 81 | – | – | – |

| SMILES | % Phosphatase Activity (compared to DMSO) PRL-3 (recombinant PRL-3; [1]) [%] | % Phosphatase Activity (compared to DMSO) PRL-1 (recombinant PRL-1; [1]) [%] | % Phosphatase Activity (compared to DMSO) PRL-2 (recombinant PRL-2; [1]) [%] | % Phosphatase Activity (compared to DMSO) PRL-3 (recombinant PRL-3) [%] | % Phosphatase Activity (compared to DMSO) PRL-1 (recombinant PRL-1) [%] | % Phosphatase Activity (compared to DMSO) PRL-2 (recombinant PRL-2) [%] |
| --- | --- | --- | --- | --- | --- | --- |
| C[C@@H](O)[C@@H]1NC(=O)[C@H](CCCCN)NC(=O)[C@@H](Cc2c[nH]c3ccccc23)NC(=O)[C@H](Cc2ccccc2)NC(=O)[C@@H](NC(=O)[C@H](N)Cc2ccccc2)CSSC[C@@H](C(=O)N[C@H](CO)[C@@H](C)O)NC1=O [Octreotide Acetate] | 93 | 99 | 90 | – | – | – |
| CC1COc2c(N3CCN(C)CC3)c(F)cc3c(=O)c(C(=O)O)cn1c23 (stereo not drawn) [Ofloxacin] | 134 | 301 | 271 | – | – | – |
| Cc1cc2c(s1)Nc1ccccc1N=C2N1CCN(C)CC1 [Olanzapine] | 80 | 99 | 97 | – | – | – |
| O=C(c1cc(Cc2n[nH]c(=O)c3ccccc23)ccc1F)N1CCN(C(=O)C2CC2)CC1 [Olaparib (AZD2281, Ku-0059436)] | 91 | 88 | 101 | – | – | – |
| CCCc1nc(C(C)(C)O)c(C(=O)OCc2oc(=O)oc2C)n1Cc1ccc(-c2ccccc2-c2nnn[nH]2)cc1 [Olmesartan Medoxomil] | 76 | 97 | 93 | – | – | – |
| C=CC(=O)Nc1cccc(Oc2nc(Nc3ccc(N4CCN(C)CC4)cc3)nc3ccsc23)c1 [Olmutinib (HM61713, BI 1482694)] | 94 | 90 | 87 | – | – | – |
| CN(C)CC/C=C1/c2ccccc2COc2ccc(CC(=O)O)cc21 [Olopatadine HCl] | 74 | 116 | 121 | – | – | – |
| O=C(O)c1cc(/N=N/c2ccc(O)c(C(=O)O)c2)ccc1O [Olsalazine Sodium] | 61 | 59 | 53 | – | – | – |
| Cc1c(-c2cnccn2)ssc1=S [Oltipraz] | – | – | – | 76 | 90 | 73 |
| COc1ccc2[nH]c([S+]([O-])Cc3ncc(C)c(OC)c3C)nc2c1 (stereo not drawn) [Omeprazole] | 54 | 89 | 96 | – | – | – |
| Cc1nccn1CC1CCc2c(c3ccccc3n2C)C1=O.Cl (stereo not drawn) [Ondansetron HCl] | 96 | 103 | 108 | – | – | – |
| CCCCCCCCCCC[C@@H](C[C@@H]1OC(=O)[C@H]1CCCCCC)OC(=O)[C@H](CC(C)C)NC=O [Orlistat] | 79 | 113 | 91 | – | – | – |
| Cc1ncc([N+](=O)[O-])n1CC(O)CCl (stereo not drawn) [Ornidazole] | 84 | 104 | 102 | – | – | – |
| O=C(O)c1cc(=O)[nH]c(=O)[nH]1.O=C(O)c1cc(=O)[nH]c(=O)[nH]1 [Orotic acid (6-Carboxyuracil)] | 95 | 106 | 109 | – | – | – |
| CCOC(=O)C1=C[C@@H](OC(CC)CC)[C@H](NC(C)=O)[C@@H](N)C1 [Oseltamivir Phosphate] | 94 | 91 | 102 | – | – | – |
| OCCOc1ccc(/C(=C(/CCCl)c2ccccc2)c2ccccc2)cc1 [Ospemifene] | – | – | – | 81 | 96 | 109 |
